Results on four compounds are retold here after patent publication US20060275505A1, “Method and composition for increasing the alkalinity of the body” (priority 2005, published 2006).

This test relates to acid reflux. Briefly: Example 13 case study, acid reflux. Type of test: in vivo, human. The settings on record: patient history. From the text:
A person had suffered from acid reflux for two years. The reflux was severe enough to wake them once or twice every night, and they slept in an inclined bed. […] The patient drank a small glass of water with Alka Vita each night.

Turning to `COc1ccc2[nH]c([S@@+]([O-])Cc3ncc(C)c(OC)c3C)nc2c1` [Nexium], the “relief of acid reflux by drugs tried before” value (shortened to “relief of acid reflux”) is “no relief”.

As to `NC(N)=Nc1nc(CSCCC(N)=NS(N)(=O)=O)cs1` [Pepcid AC], the “relief of acid reflux” value was “no relief”.

Turning to `COc1ccc2[nH]c([S+]([O-])Cc3ncc(C)c(OC)c3C)nc2c1` (stereo not shown) [Prilosec], the “relief of acid reflux” value is reported as “no relief”.

On to `COc1cc(N)c(Cl)cc1C(=O)NC1CCN(CCCOc2ccc(F)cc2)CC1OC` (stereo not shown) [Propulsid], for which the “relief of acid reflux” value was “no relief”.
